Measured values from ChEMBL document CHEMBL6114955, “Probing into the plasma stability and microsomal stability of thiol-based prodrug derivatives: Using IYS-15, an HDAC inhibitor as the model thiol” (Bioorg Med Chem, 2025).

Columns and labels:
[1] = Metabolic stability in human liver microsomes assessed as half life in presence of NADPH measured upto 60 mins by LC-MS/MS analysis; format: ADME, Microsome
[2] = Stability in human plasma assessed as half life at pH 7.4 measured upto 5 hrs by LC-MS/MS analysis; format: ADME, cell-free
[3] = Metabolic stability in human liver microsomes assessed as intrinsic clearance measured per mg of protein in presence of NADPH measured upto 60 mins in presence of 50 uM furafylline by LC-MS/MS analysis; format: ADME, Microsome; details: 1 h
[4] = Ratio of half life in human liver microsomes in presence of BNPP to t1/2 in human liver microsomes absence of BNPP; format: ADME, Microsome
[5] = Metabolic stability in human liver microsomes assessed as intrinsic clearance measured per mg of protein in presence of NADPH measured upto 60 mins in presence of 10 uM sulfaphenazole by LC-MS/MS analysis; format: ADME, Microsome; details: 1 h
[6] = Metabolic stability in human liver microsomes assessed as intrinsic clearance measured per mg of protein in presence of NADPH measured upto 60 mins in presence of 2 uM ketoconazole by LC-MS/MS analysis; format: ADME, Microsome; details: 1 h
[7] = Metabolic stability in human liver microsomes assessed as half life in presence of NADPH measured upto 60 mins in presence of 2 uM ketoconazole by LC-MS/MS analysis; format: ADME, Microsome; details: with ketoconazole
[8] = Metabolic stability in human liver microsomes assessed as intrinsic clearance measured per mg of protein in presence of NADPH measured upto 60 mins in presence of 10 uM montelukast by LC-MS/MS analysis; format: ADME, Microsome; details: 1 h
[9] = Ratio of half life in human liver microsomes in presence of ABT to t1/2 in human liver microsomes absence of ABT; format: ADME, Microsome
[10] = Metabolic stability in human liver microsomes assessed as half life in presence of NADPH measured upto 60 mins in presence of 2 uM ticlopidine by LC-MS/MS analysis; format: ADME, Microsome; details: with ticlopidine
[11] = Metabolic stability in human liver microsomes assessed as intrinsic clearance measured per mg of protein in presence of NADPH measured upto 60 mins in presence of 8 uM quinidine by LC-MS/MS analysis; format: ADME, Microsome; details: 1 h
[12] = Metabolic stability in human liver microsomes assessed as half life in presence of NADPH measured upto 60 mins in presence of 50 uM furafylline by LC-MS/MS analysis; format: ADME, Microsome; details: with furafylline
[13] = Metabolic stability in human liver microsomes assessed as half life in presence of NADPH measured upto 60 mins in presence of 10 uM montelukast by LC-MS/MS analysis; format: ADME, Microsome; details: with montelukast
[14] = Metabolic stability in human liver microsomes assessed as half life in presence of NADPH measured upto 60 mins in presence of 2.5 mM ABT cytochrome P450 inhibitor by LC-MS/MS analysis; format: ADME, Microsome; details: with ABT (cytochrome P450 inhibitor)
[15] = Metabolic stability in human liver microsomes assessed as intrinsic clearance measured per mg of protein in presence of NADPH measured upto 60 mins in presence of 2 uM ticlopidine by LC-MS/MS analysis; format: ADME, Microsome; details: 1 h
[16] = Metabolic stability in human liver microsomes assessed as half life in presence of NADPH measured upto 60 mins in presence of 8 uM quinidine by LC-MS/MS analysis; format: ADME, Microsome; details: with quinidine
[17] = Metabolic stability in human liver microsomes assessed as half life in presence of NADPH measured upto 60 mins in presence of 5 mM BNPP carboxylesterase inhibitor by LC-MS/MS analysis; format: ADME, Microsome; details: with BNPP (carboxylesterase inhibitor)
[18] = Metabolic stability in human liver microsomes assessed as half life in presence of NADPH measured upto 60 mins in presence of 10 uM sulfaphenazole by LC-MS/MS analysis; format: ADME, Microsome; details: with sulfaphenazole

half-life [1] [min] | half-life [2] [min] | CLint [3] [µL/min/mg] | Ratio [4] | CLint [5] [µL/min/mg] | CLint [6] [µL/min/mg] | half-life [7] [min] | CLint [8] [µL/min/mg] | Ratio [9] | half-life [10] [min] | CLint [11] [µL/min/mg] | half-life [12] [min] | half-life [13] [min] | half-life [14] [min] | CLint [15] [µL/min/mg] | half-life [16] [min] | half-life [17] [min] | half-life [18] [min] | Structure (SMILES)
18.9 | > 300 |  |  |  |  |  |  |  |  |  |  |  |  |  |  |  |  | O=C(CCCCCCSSC1CCCCC1)Nc1nc(-c2ccc(F)cc2)cs1
4.11 | > 300 |  |  |  |  |  |  |  |  |  |  |  |  |  |  |  |  | CC(C)(C)C(=O)SCCCCCCC(=O)Nc1nc(-c2ccc(F)cc2)cs1
5.5 | > 300 |  |  |  |  |  |  |  |  |  |  |  |  |  |  |  |  | CCCCCNC(=O)SCCCCCCC(=O)Nc1nc(-c2ccc(F)cc2)cs1
1.75 | > 300 | 1490 | 13.27 | 1490 | 74 | 28.5 | 1140 | 101.23 | 1.38 | 1470 | 1.41 | 1.84 | 211 | 1520 | 1.43 | 27.6 | 1.41 | CC(C)(C)C(=O)NCSCCCCCCC(=O)Nc1nc(-c2ccc(F)cc2)cs1
 | 247 |  |  |  |  |  |  |  |  |  |  |  |  |  |  |  |  | O=C(CCCCCCSSCCCCCCC(=O)Nc1nc(-c2ccc(F)cc2)cs1)Nc1nc(-c2ccc(F)cc2)cs1
12.5 | > 300 |  | 1.26 |  |  |  |  | 2.13 |  |  |  |  | 26.7 |  |  | 15.8 |  | CC(C)(C)SSCCCCCCC(=O)Nc1nc(-c2ccc(F)cc2)cs1
3.09 | > 300 | 708 | 5.32 | 716 | 351 | 5.99 | 365 | 26.54 | 2.85 | 675 | 2.98 | 5.76 | 114 | 737 | 3.11 | 22.8 | 2.94 | CN(C)C(=O)SCCCCCCC(=O)Nc1nc(-c2ccc(F)cc2)cs1
11.4 | > 300 |  |  |  |  |  |  |  |  |  |  |  |  |  |  |  |  | O=C(CCCCCCSC(=O)N1CCCC1)Nc1nc(-c2ccc(F)cc2)cs1
2.14 | > 160 |  |  |  |  |  |  |  |  |  |  |  |  |  |  |  |  | O=C(CCCCCCSC(=O)Cc1ccccc1)Nc1nc(-c2ccc(F)cc2)cs1
0.79 | > 300 |  | 35.87 |  |  |  |  | 1.09 |  |  |  |  | 0.85 |  |  | 28.2 |  | COC(=O)SCCCCCCC(=O)Nc1nc(-c2ccc(F)cc2)cs1
11.4 | > 300 |  |  |  |  |  |  |  |  |  |  |  |  |  |  |  |  | O=C(CCCCCCSC(=O)c1ccc2c(c1)OCCO2)Nc1nc(-c2ccc(F)cc2)cs1
5.77 | > 300 |  | 2.52 |  |  |  |  | 0.66 |  |  |  |  | 3.82 |  |  | 14.5 |  | O=C(CCCCCCSC(=O)c1ccc(C(F)(F)F)cc1)Nc1nc(-c2ccc(F)cc2)cs1
10.8 | > 300 |  |  |  |  |  |  |  |  |  |  |  |  |  |  |  |  | COc1ccc(C(=O)SCCCCCCC(=O)Nc2nc(-c3ccc(F)cc3)cs2)cc1
1.27 | > 300 | 1380 | 2.03 | 1370 | 67 | 31.5 | 1680 | 9.6 | 1.39 | 1840 | 1.52 | 1.25 | 81.1 | 1520 | 1.15 | 17.1 | 1.53 | CC(C)N(C(=O)SCCCCCCC(=O)Nc1nc(-c2ccc(F)cc2)cs1)C(C)C
6.08 | > 300 |  | 1.66 |  |  |  |  | 2.78 |  |  |  |  | 16.9 |  |  | 10.1 |  | CCCCSSCCCCCCC(=O)Nc1nc(-c2ccc(F)cc2)cs1
0.57 | 151 |  | 10.1 |  |  |  |  | 0.93 |  |  |  |  | 0.53 |  |  | 5.78 |  | CC(=O)SCCCCCCC(=O)Nc1nc(-c2ccc(F)cc2)cs1
2.34 | > 300 |  | 4.63 |  |  |  |  | 0.74 |  |  |  |  | 5.78 |  |  | 36.3 |  | O=C(CCCCCCSC(=O)c1ccccc1)Nc1nc(-c2ccc(F)cc2)cs1
6.81 | > 300 | 253 | 9.53 | 218 | 93 | 22.5 | 150 | 7.71 | 8.09 | 243 | 8.31 | 14 | 65.8 | 260 | 8.68 | 81.4 | 9.66 | CC(=O)NCSCCCCCCC(=O)Nc1nc(-c2ccc(F)cc2)cs1
 | 179 |  |  |  |  |  |  |  |  |  |  |  |  |  |  |  |  | CCCCC(=O)SCCCCCCC(=O)Nc1nc(-c2ccc(F)cc2)cs1
11.9 | > 300 |  |  |  |  |  |  |  |  |  |  |  |  |  |  |  |  | CCCCCCSSCCCCCCC(=O)Nc1nc(-c2ccc(F)cc2)cs1
1.17 | 160 |  | 7.77 |  |  |  |  | 0.48 |  |  |  |  | 0.56 |  |  | 9.11 |  | CCC(=O)SCCCCCCC(=O)Nc1nc(-c2ccc(F)cc2)cs1
4.81 | > 300 | 296 | 8.53 | 276 | 115 | 18.2 | 203 | 10.62 | 7.42 | 288 | 7.1 | 10.4 | 68.3 | 283 | 7.28 | 54.9 | 7.61 | CNC(=O)SCCCCCCC(=O)Nc1nc(-c2ccc(F)cc2)cs1

Structure (SMILES) | half-life [1] [min] | half-life [2] [min] | CLint [3] [µL/min/mg] | Ratio [4] | CLint [5] [µL/min/mg] | CLint [6] [µL/min/mg] | half-life [7] [min] | CLint [8] [µL/min/mg] | Ratio [9] | half-life [10] [min] | CLint [11] [µL/min/mg] | half-life [12] [min] | half-life [13] [min] | half-life [14] [min] | CLint [15] [µL/min/mg] | half-life [16] [min] | half-life [17] [min] | half-life [18] [min]
CCOP(=O)(OCC)SCCCCCCC(=O)Nc1nc(-c2ccc(F)cc2)cs1 | 2.14 | > 300 |  | 18.22 |  |  |  |  | 8.2 |  |  |  |  | 24.5 |  |  | 54.5 | 
O=C(CCCCCCSP(=O)(c1ccccc1)c1ccccc1)Nc1nc(-c2ccc(F)cc2)cs1 | 0.92 | > 300 |  | 26.7 |  |  |  |  | 37.24 |  |  |  |  | 34.2 |  |  | 24.5 | 
COP(=O)(OC)SCCCCCCC(=O)Nc1nc(-c2ccc(F)cc2)cs1 | 9.85 | > 300 |  | 16.8 |  |  |  |  | 4.46 |  |  |  |  | 44 |  |  | 165 | 
